Measured values from US20140235447A1, “METHODS FOR […] YIELD” (Syngenta Crop Protection LLC, priority 2013, published 2014).
Several values for one entry are separate records, joined by “and”; a condition that tells them apart may be missing. Equal entries are not always repeated.

Legend:
cotton = experiment: Treatment of tropical cotton with single or multiple applications of 1-MCP, seed cotton yield; format: in vivo; details: 9.6 GAI/HA
Procedure: Four different replicates of treatment of cotton are performed. […] Treatment A designates application of cyclopropene at the stage of Pin Head Square +14 days. Treatment B designates application of cyclopropene at the stage of first flowers. […]

Tropical corn = experiment: Treatment of tropical corn with single or multiple applications of 1-MCP, crop yield; format: in vivo; details: for Yield increase in kg/ha, Single app. @ V3-5: single application at stage of 3-5 fully collared leaves; for Yield increase in kg/ha, Single app @ V10: single application at stage of 10 leaves; for Yield increase in kg/ha, Double app. @ V3&10: two applications, 3-5 fully collared leaves and 10 leaf stage
Procedure: Tropical corn is treated with a combination of extruded granules of dextrose containing 0.1% 1-MCP and coated sand granules also containing 0.1% 1-MCP. The plants are treated with (1) a single application at the stage of 3-5 fully collared leaves; (2) a single application at the stage of 10 leaves; or (3) two applications with a first application at stage of 3-5 fully collared leaves and a second application at the 10 leaf stage. Dosages of 5 g/hectare, 10 g/hectare, and 25 g/hectare 1-MCP are applied for each of the three different treatment regimes.
The results are presented in Table 1 and FIG. 1 with yield being measured in kg/hectare. For each dosage amount the left bar designates treatment 1 (a single application at the stage of 3-5 fully collared leaves), the middle bar designates treatment 2 (a single application at the stage of 10 leaves), and the right hand bar designates treatment 3 (application at both the stage of 3-5 fully collared leaves and again at the 10 leaf stage). For each of the 5 g/hectare treatment, the 10 g/hectare treatment, and the 25 g/hectare treatment, the yield is increased by more than 150% for plants undergoing two treatments when compared to plants treated only once.

CC1=CC1 [1-MCP, 1-methylcyclopropene]
Yield difference between treated plots and untreated checks, Double Applications AB: Floral buds enlarged/Early bloom, average (cotton; average of trials 1-5): 713 kg/ha of seed cotton
Yield difference between treated plots and untreated checks, Double Applications BC: Early bloom/10% of bolls at final size, average (cotton; average of trials 1-5): 796 kg/ha of seed cotton
Yield difference between treated plots and untreated checks, Single Application A: Floral buds distinctly enlarged, average (cotton; average of trials 1-5): 577 kg/ha of seed cotton
Yield difference between treated plots and untreated checks, Single Application B: Early bloom, average (cotton; average of trials 1-5): 568 kg/ha of seed cotton
Yield difference between treated plots and untreated checks, Single Application C: 10% of bolls at final size, average (cotton; average of trials 1-5): 512 kg/ha of seed cotton
Yield difference between treated plots and untreated checks, Double Applications AB: Floral buds enlarged/Early bloom (cotton; individual trials 1-5): 560 kg/ha of seed cotton and 185 kg/ha of seed cotton and 883 kg/ha of seed cotton and 1563 kg/ha of seed cotton and 375 kg/ha of seed cotton
Yield difference between treated plots and untreated checks, Double Applications BC: Early bloom/10% of bolls at final size (cotton; individual trials 1-5): 696 kg/ha of seed cotton and 262 kg/ha of seed cotton and 1042 kg/ha of seed cotton and 1667 kg/ha of seed cotton and 313 kg/ha of seed cotton
Yield difference between treated plots and untreated checks, Single Application A: Floral buds distinctly enlarged (cotton; individual trials 1-5): 571 kg/ha of seed cotton and 167 kg/ha of seed cotton and 767 kg/ha of seed cotton and 1132 kg/ha of seed cotton and 250 kg/ha of seed cotton
Yield difference between treated plots and untreated checks, Single Application B: Early bloom (cotton; individual trials 1-5): 839 kg/ha of seed cotton and 369 kg/ha of seed cotton and 767 kg/ha of seed cotton and 757 kg/ha of seed cotton and 106 kg/ha of seed cotton
Yield difference between treated plots and untreated checks, Single Application C: 10% of bolls at final size (cotton; individual trials 1-5): 780 kg/ha of seed cotton and 280 kg/ha of seed cotton and 792 kg/ha of seed cotton and 715 kg/ha of seed cotton and −6 kg/ha of seed cotton
Yield increase in kg/ha, Single app. @ V3-5 (Tropical corn; 5 g/ha 1-MCP): 506 kg/ha
Yield increase in kg/ha, Single app @ V10 (Tropical corn; 5 g/ha 1-MCP): 351 kg/ha
Yield increase in kg/ha, Double app. @ V3&10 (Tropical corn; 5 g/ha 1-MCP): 1082 kg/ha
yield increase for plants undergoing two treatments compared to plants treated only once (Tropical corn; 5 g/hectare treatment): more than 150%
Yield increase in kg/ha, Single app. @ V3-5 (Tropical corn; 10 g/ha 1-MCP): 557 kg/ha
Yield increase in kg/ha, Single app @ V10 (Tropical corn; 10 g/ha 1-MCP): 618 kg/ha
Yield increase in kg/ha, Double app. @ V3&10 (Tropical corn; 10 g/ha 1-MCP): 1580 kg/ha
yield increase for plants undergoing two treatments compared to plants treated only once (Tropical corn; 10 g/hectare treatment): more than 150%
Yield increase in kg/ha, Single app. @ V3-5 (Tropical corn; 20-25 g/ha 1-MCP): 826 kg/ha
Yield increase in kg/ha, Single app @ V10 (Tropical corn; 20-25 g/ha 1-MCP): 543 kg/ha
Yield increase in kg/ha, Double app. @ V3&10 (Tropical corn; 20-25 g/ha 1-MCP): 1539 kg/ha
yield increase for plants undergoing two treatments compared to plants treated only once (Tropical corn; 25 g/hectare treatment): more than 150%
